{"source": "patent US8999655B2", "about": "“Increase of myeloid microvesicles in the cerebrospinal fluid as biomarker of microglia/macrophage activation in neurological disorders” (Consiglio Nazionale delle Ricerche, priority 2010, dated 2015)", "key": {"[1]": {"system": "Cultured hippocampal neurons", "test": "Quantification of neuronal damage (PI uptake, annexin-V staining) after Aβ-treated MVs", "format": "cell-based", "details": "20 μM CNQX and 100 μM APV applied together during 1 h exposure to Aβ-treated MVs, read 24 h later", "protocol": "(§1) FIG. 12. Cultured hippocampal neurons were loaded with the ratiometric calcium dye FURA-2 for 1 h. During FURA-2 loading, neurons were exposed to microglia-derived microvesicles pre-incubated overnight in neuronal medium in the presence or in the absence of Abeta 1-42 (5 μM). Neurons were then wash in Kreb's ringer and resting calcium levels and calcium responsiveness to glutamate agonists (AMPA 100 μM, NMDA 100 μM) were evaluated using a single cell calcium imaging system. […] PI uptake and fragmentation of neuronal cytoskeleton (C) and staining for annexin-V, quantified in F, indicate that Aβ-treated MVs strongly affect neuronal viability. […] I Quantitative analysis of mean amplitude of calcium responses evoked by AMPA or NMDA in control neurons and neurons exposed to Aβ-treated AD MVs.\nLiving neurons were exposed annexin-V-FITC, fixed with 4% paraphormaldeyde and counterstained with antibodies direct against the neuronal marker SNAP-25. Apoptotic processes, labelled by annexin-V, were quantified by the Image J software and normalized to SNAP-25 immunoreactivity, as an index of neurite density. […] PI positive nuclei were quantified and normalized to total Hoescht positive nuclei. α-tubulin staining was carried out to evaluate integrity of neuronal cytoskeleton. At least 10 different fields from three independent experiments have been analyzed."}, "[2]": {"system": "Cultured hippocampal neurons", "test": "Calcium imaging (FURA-2) of basal cytosolic calcium in neurons exposed to Aβ-treated MVs", "format": "cell-based", "details": "APV and CNQX applied together; FIG. 12G", "protocol": "as §1\nPolychrome V (TILL Photonics, Grafelfing, Germany) was used as a light source. Fura-2 fluorescence images were collected with a PCO Super VGA SensiCam (Axon Instruments, Forest City, Calif., USA) and analyzed with TILL vision software. […] The ratio values in discrete areas of interest were calculated from sequences of images to obtain temporal analyses. Calcium concentrations were expressed as F340/380 fluorescence ratios."}, "isolectin IB-4 [3]": {"system": "isolectin IB-4", "test": "Specificity of IB4-FITC labelling of primary microglia (fluorescence microscopy)", "format": "binding, Baindeiraea Simplicifolia", "details": "IB4-FITC pretreated with 1M melibiose, FIG. 5A", "text": "(§2) FIG. 5. IB-4 labeling of microglia/macrophage-derived MVs is specific. A. Differential interference contrast microscopy (right panels) and fluorescent images (left panels) of primary microglia labelled in vivo with IB4-FITC.\n(§3) CSF collected from naïve mice or mice exposed to different inflammatory treatments was directly stained with FITC-conjugate Isolectin B4 from Baindeiraea Simplicifolia, (IB4-FITC, SIGMA), and the phosphatydil serine ligand annexin-V in 1% BSA. Specificity of IB4 labelling was evaluated by treating IB4-FITC with 1 M melibiose (6-O-a-D-galactopyranosyl-D-glucose, Sigma M5500) for 30 min before addition to Shed MVs (FIG. 9) as previously described (Ayoub A E et al.). CSF was then diluted in PBS buffer and labelled MVs were acquired within a fixed time interval on a Canto II HTS flow cytometer (Becton Dickinson). Data were analysed using FCS 3 software (Becton Dickinson, Franklin Lakes, N.J., USA). A gate was established on size using beads of 0.5-2 μm. Whithin this gate IB4/annexin-V double positive events (number of events/μl) were evaluated as a parameter of MVs concentration in the CSF. […] IB4 and annexin-V double positive events were evaluated as a parameter of shed MVs concentration while IB4 and CD63 double positive events was evaluated as a parameter of exosome concentration. […]"}, "isolectin IB-4 [4]": {"system": "isolectin IB-4", "test": "Specificity of IB4-FITC labelling of MVs shed from N9 microglia (flow cytometry)", "format": "binding, Baindeiraea Simplicifolia", "details": "melibiose pretreatment, FACS, FIG. 5B", "text": "as §2, §3"}, "Primary mouse microglia": {"system": "Primary mouse microglia", "test": "Release of AnnexinV+ shed vesicles from ATP-stimulated microglia, measured by FACS", "format": "cell-based", "details": "FIG. 13", "protocol": "FIG. 13. FTY720 treatment. Primary mouse microglia was pre-treated, or not, with FTY720, also named fingolimod or Gylenia, currently in course of registration for the treatment of multiple sclerosis, for 30 min., then ATP was added for further 30 min. to induce the release of AnnexinV^+ shed vesicles, as measured by FACS.\nDendrites of neurons exposed to Aβ1-42-treated-MVs have a frequently fragmented or beaded appearance (FIG. 12D), display abnormal cytoplasmic calcium concentration (FIG. 12A) and reduced responsiveness to glutamate agonists (FIG. 12B). […] Similar detrimental effects are induced in cultured neurons by MVs isolated from AD CSF, pre-incubated with Aβ1-42 (FIG. 12H-I). Finally, primary mouse microglia was pre-treated, or not, with FTY720, also named fingolimod or Gylenia (FIG. 13), currently in course of registration for the treatment of multiple sclerosis, for […], then ATP was added for 30 min. to induce the release of AnnexinV^+ shed vesicles, as measured by FACS. […] Therefore, the number of shed vesicles in the CSF of treated patients represents a biomarker of therapeutic efficacy of MS or other neurological disorders therapeutic treatment."}, "[5]": {"biological_target": "T1, acid sphingomyelinase (A-SMase) (Homo sapiens, UniProt P17405)", "T1 sequence (P17405 47-631)": "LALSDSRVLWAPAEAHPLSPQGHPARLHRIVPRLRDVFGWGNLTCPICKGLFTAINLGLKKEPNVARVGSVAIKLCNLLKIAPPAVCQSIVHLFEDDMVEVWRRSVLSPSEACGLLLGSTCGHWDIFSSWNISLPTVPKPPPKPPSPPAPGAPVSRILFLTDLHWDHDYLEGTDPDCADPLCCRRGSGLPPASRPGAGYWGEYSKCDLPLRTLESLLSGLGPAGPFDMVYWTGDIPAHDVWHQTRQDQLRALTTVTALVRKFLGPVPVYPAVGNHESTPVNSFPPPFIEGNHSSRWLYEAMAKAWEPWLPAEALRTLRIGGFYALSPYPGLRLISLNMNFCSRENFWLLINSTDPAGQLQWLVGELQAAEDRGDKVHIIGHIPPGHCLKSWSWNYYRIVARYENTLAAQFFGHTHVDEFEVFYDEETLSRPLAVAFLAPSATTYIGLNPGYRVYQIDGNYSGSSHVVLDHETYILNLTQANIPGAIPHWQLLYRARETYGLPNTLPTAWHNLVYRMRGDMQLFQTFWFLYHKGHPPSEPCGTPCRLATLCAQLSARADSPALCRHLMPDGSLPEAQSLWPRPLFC", "details": "recently identified; mechanism similar to tricyclic antidepressants; cited from earlier work"}}, "data": [{"smiles": "N#Cc1cc2[nH]c(=O)c(=O)[nH]c2cc1[N+](=O)[O-]", "note": "[CNQX]", "values": [{"measurement": "neuronal damage caused by Aβ-treated MVs (PI uptake, annexin-V staining)", "setting": "[1]", "result": "strongly prevented"}, {"measurement": "increase in cytoplasmic calcium level induced by Aβ-treated MVs", "setting": "[2]", "result": "almost completely inhibited"}]}, {"smiles": "N[C@@H](CCCP(=O)(O)O)C(=O)O", "note": "[APV]", "values": [{"measurement": "neuronal damage caused by Aβ-treated MVs (PI uptake, annexin-V staining)", "setting": "[1]", "result": "strongly prevented"}, {"measurement": "increase in cytoplasmic calcium level induced by Aβ-treated MVs", "setting": "[2]", "result": "almost completely inhibited"}]}, {"smiles": "OC[C@H]1O[C@H](OC[C@H]2OC(O)[C@H](O)[C@@H](O)[C@@H]2O)[C@H](O)[C@@H](O)[C@H]1O", "note": "(stereo partly drawn) [melibiose, 6-O-a-D-galactopyranosyl-D-glucose]", "values": [{"measurement": "IB4-FITC binding to the cell surface", "setting": "isolectin IB-4 [3]", "result": "completely prevents its binding to the cell surface"}, {"measurement": "IB4-FITC labeling of intact MVs", "setting": "isolectin IB-4 [4]", "result": "completely abolished IB4-FITC labeling"}]}, {"smiles": "CCCCCCCCc1ccc(CCC(N)(CO)CO)cc1", "note": "[FTY720]", "values": [{"measurement": "MP shedding", "setting": "Primary mouse microglia", "result": "potently inhibits MP shedding"}, {"measurement": "release of AnnexinV+ shed vesicles", "setting": "Primary mouse microglia; FTY720 pre-treatment 30 min, then ATP for further 30 min", "result": "completely prevented the release of shed vesicles above background levels"}, {"measurement": "release of AnnexinV+ shed vesicles", "setting": "Primary mouse microglia; FTY720 pre-treatment 18 h, then ATP 30 min", "result": "completely prevented the release of shed vesicles above background levels"}, {"measurement": "inhibition of A-SMase", "setting": "[5]", "result": "inhibitor of A-SMase"}]}]}
